Results as given in patent publication US12662491B2 (Redona Therapeutics, Inc., priority 2020, dated 2026).

target: T1, Zcchc11 enzyme (Homo sapiens, UniProt Q5TAX3); assay: TUTase assay (Zcchc11 assay, Lin28a-dependent polyuridylation of pre-let-7); format: biochemical; details: LIN28A 10 nM, Zcchc11 0.2 nM, 5′-fluorescein pre-let-7 miRNA 2 nM, UTP 5 uM, room temperature, 30 minutes pre-incubation; read-out: Potency Lin28a-dep Z11 IC50
T1 construct: made in house; host or cells: HEK293 cells (Zcchc11); E. coli Rosetta II (LIN28A)
T1 sequence (Q5TAX3 212-1420): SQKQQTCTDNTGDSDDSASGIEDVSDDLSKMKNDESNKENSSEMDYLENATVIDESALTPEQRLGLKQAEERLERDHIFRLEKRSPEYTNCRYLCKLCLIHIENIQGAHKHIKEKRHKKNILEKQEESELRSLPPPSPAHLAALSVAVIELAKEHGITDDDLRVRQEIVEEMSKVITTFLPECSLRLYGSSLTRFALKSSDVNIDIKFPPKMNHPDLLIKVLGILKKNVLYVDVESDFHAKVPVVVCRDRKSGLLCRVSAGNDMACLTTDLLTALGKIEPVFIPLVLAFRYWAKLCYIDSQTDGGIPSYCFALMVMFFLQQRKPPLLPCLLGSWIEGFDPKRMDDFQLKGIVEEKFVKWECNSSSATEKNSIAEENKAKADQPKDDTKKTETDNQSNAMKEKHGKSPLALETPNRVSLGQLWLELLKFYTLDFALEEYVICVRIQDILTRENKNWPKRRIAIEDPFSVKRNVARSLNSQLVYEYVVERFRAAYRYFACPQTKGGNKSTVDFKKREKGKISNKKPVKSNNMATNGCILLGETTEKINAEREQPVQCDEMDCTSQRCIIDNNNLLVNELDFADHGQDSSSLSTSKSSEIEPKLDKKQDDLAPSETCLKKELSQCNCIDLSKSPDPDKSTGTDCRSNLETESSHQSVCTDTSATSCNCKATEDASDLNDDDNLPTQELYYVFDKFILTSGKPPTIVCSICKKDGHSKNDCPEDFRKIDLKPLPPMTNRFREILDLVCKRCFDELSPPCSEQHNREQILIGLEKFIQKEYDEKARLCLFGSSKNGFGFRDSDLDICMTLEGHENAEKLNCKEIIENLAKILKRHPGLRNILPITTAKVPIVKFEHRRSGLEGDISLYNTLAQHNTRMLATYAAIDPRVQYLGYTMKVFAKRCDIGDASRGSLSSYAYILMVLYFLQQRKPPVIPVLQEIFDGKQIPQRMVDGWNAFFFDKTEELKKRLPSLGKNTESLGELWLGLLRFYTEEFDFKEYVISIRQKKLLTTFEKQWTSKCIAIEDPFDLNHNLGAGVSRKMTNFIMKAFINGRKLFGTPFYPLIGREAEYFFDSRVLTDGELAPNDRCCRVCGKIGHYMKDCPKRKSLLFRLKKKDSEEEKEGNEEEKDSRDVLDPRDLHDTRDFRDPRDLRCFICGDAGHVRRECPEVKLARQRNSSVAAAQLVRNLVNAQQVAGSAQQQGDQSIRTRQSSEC
In short: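 LIN28A (10 nM) in pH 7.3 HEPES/KCl/MgCl2/DTT buffer was mixed with serially diluted compound, then 0.2 nM truncated human Zcchc11 and 2 nM labeled pre-let-7 were added for 30 min at room temperature. UTP (5 uM) and quench probe (4 nM) then started the reaction. Linear early rates gave IC50 values.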

Question: COc1ccc(Cl)c(OCC2C3CC(C3)N2c2cc3c(cc2Cl)c(=O)c(C(=O)O)cn3-c2ccc(N3CC(N(C)C)C3)nc2)n1 (stereo not shown) [Example 64, 6-chloro-7-(3-(((3-chloro-6-methoxypyridin-2-yl)oxy)methyl)-2-azabicyclo[2.1.1]hexan-2-yl)-1-(6-(3-(dimethylamino)azetidin-1-yl)pyridin-3-yl)-4-oxo-1,4-dihydroquinoline-3-carboxylic acid] was tested. Which IC50 did it give?
Answer: ≤ 1000 nM

Question: With CC1CCN(c2cc3c(cc2Cl)c(=O)c(C(=O)O)cn3-c2ccnc(N)c2)[C@H]1COc1nc(N(C)C)ccc1Cl (stereo partly drawn) [Example 65, 1-(2-aminopyridin-4-yl)-6-chloro-7-[(2R)-2-({[3-chloro-6-(dimethylamino)pyridin-2-yl]oxy}methyl)-3-methylpyrrolidin-1-yl]-4-oxoquinoline-3-carboxylic acid] as the compound, how does the IC50 read?
Answer: ≤ 1000 nM

Question: With COc1ccc(Cl)c(OC[C@H]2CC3CC3N2c2cc3c(cc2F)c(=O)c(C(=O)O)cn3-c2ccnc(N)c2)n1 (stereo partly drawn) [Example 66, 1-(2-Aminopyridin-4-yl)-7-((3R)-3-(((3-chloro-6-methoxypyridin-2-yl)oxy)methyl)-2-azabicyclo[3.1.0]hexan-2-yl)-6-fluoro-4-oxo-1,4-dihydroquinoline-3-carboxylic acid] as the compound, how does the IC50 read?
Answer: ≤ 1000 nM

Question: COc1ccc(Cl)c(OCC2N(c3cc4c(cc3Cl)c(=O)c(C(=O)O)cn4-c3cc(N)cnn3)CCC2(C)C)n1 (stereo not shown) [Example 67, 1-(5-Aminopyridazin-3-yl)-6-chloro-7-(2-(((3-chloro-6-methoxypyridin-2-yl)oxy)methyl)-3,3-dimethylpyrrolidin-1-yl)-4-oxo-1,4-dihydroquinoline-3-carboxylic acid] was tested. Which IC50 did it give?
Answer: ≤ 1000 nM

Question: Which IC50 does the source give for COc1ccc(Cl)c(OC[C@H]2C[C@H]3C[C@H]3N2c2cc3c(cc2F)c(=O)c(C(=O)O)cn3-c2ccc(N3CC(N(C)C)C3)nc2)n1 [Example 68, 7-((1R,3R,5R)-3-(((3-chloro-6-methoxypyridin-2-yl)oxy)methyl)-2-azabicyclo[3.1.0]hexan-2-yl)-1-(6-(3-(dimethylamino)azetidin-1-yl)pyridin-3-yl)-6-fluoro-4-oxo-1,4-dihydroquinoline-3-carboxylic acid] here?
Answer: ≤ 1000 nM

Question: With CO/N=C1/C[C@H](COc2nc(OC)ccc2Cl)N(c2cc3c(cc2Cl)c(=O)c(C(=O)O)cn3-c2ccc(N3CC(N(C)C)C3)nc2)C1 [Example 69, 6-chloro-7-[(2R,4Z)-2-[[(3-chloro-6-methoxypyridin-2-yl)oxy]methyl]-4-(methoxyimino)pyrrolidin-1-yl]-1-[6-[3-(dimethylamino)azetidin-1-yl]pyridin-3-yl]-4-oxoquinoline-3-carboxylic acid] as the compound, how does the IC50 read?
Answer: ≤ 1000 nM

Question: How did the IC50 turn out when COc1ccc(Cl)c(OC[C@H]2C[C@@H]3C[C@@H]3N2c2cc3c(cc2F)c(=O)c(C(=O)O)cn3-c2ccc(N3CC(N(C)C)C3)nc2)n1 [Example 70, 7-[(3R)-3-{[(3-chloro-6-methoxypyridin-2-yl)oxy]methyl}-2-azabicyclo[3.1.0]hexan-2-yl]-1-{6-[3-(dimethylamino)azetidin-1-yl]pyridin-3-yl}-6-fluoro-4-oxo-1,4-dihydroquinoline-3-carboxylic acid] was run?
Answer: ≤ 1000 nM

Question: Which IC50 does the source give for COc1ccc(Cl)c(OC[C@H]2CC(c3cn[nH]c3)CN2c2cc3c(cc2F)c(=O)c(C(=O)O)cn3-c2ccc(N3CC(N(C)C)C3)nc2)n1 (stereo partly drawn) [Example 71, 7-[(2R)-2-[[(3-chloro-6-methoxypyridin-2-yl)oxy]methyl]-4-(1H-pyrazol-4-yl)pyrrolidin-1-yl]-1-[6-[3-(dimethylamino)azetidin-1-yl]pyridin-3-yl]-6-fluoro-4-oxoquinoline-3-carboxylic acid] here?
Answer: ≤ 1000 nM

Question: Which IC50 does the source give for COc1ccc(Cl)c(OC[C@H]2CC3CC3N2c2cc3c(cc2F)c(=O)c(C(=O)O)cn3-c2ccc(N3CC(N(C)C)C3)nc2)n1 (stereo partly drawn) [Example 72, 7-[(3R)-3-{[(3-chloro-6-methoxypyridin-2-yl)oxy]methyl}-2-azabicyclo[3.1.0]hexan-2-yl]-1-{6-[3-(dimethylamino)azetidin-1-yl]pyridin-3-yl}-6-fluoro-4-oxo-1,4-dihydroquinoline-3-carboxylic acid] here?
Answer: ≤ 1000 nM

Question: COc1ccc(Cl)c(OC[C@H]2C[C@@H]3C[C@@H]3N2c2cc3c(cc2F)c(=O)c(C(=O)O)cn3-c2ccc(N3CC(N(C)C)C3)nc2)n1 [Example 74, 7-[(1S,3R,5S)-3-{[(3-chloro-6-methoxypyridin-2-yl)oxy]methyl}-2-azabicyclo[3.1.0]hexan-2-yl]-1-{6-[3-(dimethylamino)azetidin-1-yl]pyridin-3-yl}-6-fluoro-4-oxo-1,4-dihydroquinoline-3-carboxylic acid] was tested. Which IC50 did it give?
Answer: ≤ 1000 nM

Question: With COc1ccnc(OC[C@H]2CCCN2c2cc3c(cc2Cl)c(=O)c(C(=O)O)cn3-c2ccc(N3CC(N(C)C)C3)nc2)c1Cl [Example 75, 6-chloro-7-[(2R)-2-{[(3-chloro-4-methoxypyridin-2-yl)oxy]methyl}pyrrolidin-1-yl]-1-{6-[3-(dimethylamino)azetidin-1-yl]pyridin-3-yl}-4-oxo-1,4-dihydroquinoline-3-carboxylic acid] as the compound, how does the IC50 read?
Answer: ≤ 1000 nM

Question: For O=C(O)c1cn(-c2cc3n(n2)CCOC3)c2cc(N3CCC[C@@H]3COc3ncccc3Cl)c(Cl)cc2c1=O [Example 76, (R)-6-chloro-7-(2-(((3-chloropyridin-2-yl)oxy)methyl)pyrrolidin-1-yl)-1-(6,7-dihydro-4H-pyrazolo[5,1-c][1,4]oxazin-2-yl)-4-oxo-1,4-dihydroquinoline-3-carboxylic acid], which IC50 is on record?
Answer: ≤ 1000 nM

Question: Which IC50 does the source give for O=C(O)c1cn(-c2cnccn2)c2cc(N3C[C@@H](F)C[C@H]3COc3ncccc3Cl)c(Cl)cc2c1=O [Example 77, 6-chloro-7-[(2S,4S)-2-{[(3-chloropyridin-2-yl)oxy]methyl}-4-fluoropyrrolidin-1-yl]-4-oxo-1-(pyrazin-2-yl)-1,4-dihydroquinoline-3-carboxylic acid] here?
Answer: ≤ 1000 nM

Question: With CN(C)C1CN(c2ccc(-n3cc(C(=O)O)c(=O)c4cc(Cl)c(N5CCC[C@@H]5COc5ncccc5Cl)cc43)cn2)C1 [Example 78, 6-chloro-7-[(2R)-2-{[(3-chloropyridin-2-yl)oxy]methyl}pyrrolidin-1-yl]-1-{6-[3-(dimethylamino)azetidin-1-yl]pyridin-3-yl}-4-oxo-1,4-dihydroquinoline-3-carboxylic acid] as the compound, how does the IC50 read?
Answer: ≤ 1000 nM

same assay, conditions: Lin28a-dependent Zcchc11 (Z11) TUTase assay; read-out: Potency Lin28a-dep Z11 IC50

Question: Which IC50 does the source give for COc1ccc(-n2cc(C(=O)O)c(=O)c3cc(Cl)c(N4CCC[C@@H]4COc4ncccc4Cl)cc32)cn1 [Example 353, (R)-6-chloro-7-(2-(((3-chloropyridin-2-yl)oxy)methyl)pyrrolidin-1-yl)-1-(6-methoxypyridin-3-yl)-4-oxo-1,4-dihydroquinoline-3-carboxylic acid] here?
Answer: ≤ 1000 nM

Question: How did the IC50 turn out when O=C(O)c1cn(-c2cnc(O)cn2)c2cc(N3CCC[C@@H]3COc3ccccn3)c(F)cc2c1=O [Example 354, (R)-6-fluoro-1-(5-hydroxypyrazin-2-yl)-4-oxo-7-(2-((pyridin-2-yloxy)methyl)pyrrolidin-1-yl)-1,4-dihydroquinoline-3-carboxylic acid] was run?
Answer: 1000 to 10000 nM

Question: Which IC50 does the source give for CNCCNc1ccc(-n2cc(C(=O)O)c(=O)c3cc(Cl)c(N4CCC[C@@H]4COc4ncccc4Cl)cc32)cn1 [Example 355, (R)-6-chloro-7-(2-(((3-chloropyridin-2-yl)oxy)methyl)pyrrolidin-1-yl)-1-(6-((2-(methylamino)ethyl)amino)pyridin-3-yl)-4-oxo-1,4-dihydro-quinoline-3-carboxylic acid] here?
Answer: ≤ 1000 nM

Question: With Cc1cccnc1OC[C@H]1CCCN1c1cc2c(cc1F)c(=O)c(C(=O)O)cn2C1(C)CC1 [Example 356, (R)-6-fluoro-1-(1-methylcyclo-propyl)-7-(2-(((3-methylpyridin-2-yl)oxy)methyl)pyrrolidin-1-yl)-4-oxo-1,4-dihydroquinoline-3-carboxylic acid] as the compound, how does the IC50 read?
Answer: ≤ 1000 nM

Question: With O=C(O)c1cn(C2CC2)c2c(F)c(N3CCC[C@@H]3COc3cccnc3)c(F)cc2c1=O [Example 357, (R)-1-cyclopropyl-6,8-difluoro-4-oxo-7-(2-((pyridin-3-yloxy)methyl)pyrrolidin-1-yl)-1,4-dihydro-quinoline-3-carboxylic acid] as the compound, how does the IC50 read?
Answer: 1000 to 10000 nM
